Columns and labels:
Assay in all cases: relative viability (nuclei count vs DMSO), 5 days (fraction); higher = more cells survive
[1] = compound: CC1=CC(=C(N1C2=CC=C(C=C2)Cl)C)C(=O)CN3CCCCC3 [IU1-47] + CC(=O)c1c(C)c2cnc(Nc3ccc(N4CCNCC4)cn3)nc2n(C2CCCC2)c1=O [Palbociclib] (partner 0.5 µM)
Method in brief: (§1)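 Lung cancer cell lines were pin-tool dosed in 1536-well plates on the day after seeding, with either a lone drug or a fixed anchor-drug dose plus five library-drug doses (not always all listed) in √10 steps. Nuclei were counted on 4× images after 5 days. Relative viability is the ratio of treated-well to vehicle-well nuclei counts, with each value a median of duplicate plates.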

[2] = compound: CC1=CC(=C(N1C2=CC=C(C=C2)Cl)C)C(=O)CN3CCCCC3 [IU1-47] + CCNC(=O)c1noc(-c2cc(C(C)C)c(O)cc2O)c1-c1ccc(CN2CCOCC2)cc1 [Luminespib] (partner 0.01 µM)
Method in brief: as §1

[3] = compound: CC1=CC(=C(N1C2=CC=C(C=C2)Cl)C)C(=O)CN3CCCCC3 [IU1-47] + NC(=O)Nc1cc(-c2cccc(F)c2)sc1C(=O)N[C@H]1CCCNC1 [AZD7762] (partner 0.2 µM)
Method in brief: as §1

[4] = compound: Cc1nc(C(=O)NCC(=O)O)c(O)c2ccc(Oc3ccccc3)cc12 [FG-4592] + CC(=O)c1c(C)c2cnc(Nc3ccc(N4CCNCC4)cn3)nc2n(C2CCCC2)c1=O [Palbociclib] (partner 0.5 µM)
Method in brief: as §1

CAL-12T showed a relative viability ([1]; first compound 0.08 µM) of 0.402, a relative viability ([1]; first compound 0.253 µM) of 0.306 and a relative viability ([1]; first compound 0.8 µM) of 0.413. The relative viability ([1]; first compound 2.53 µM) was 0.508, the relative viability ([1]; first compound 8 µM) was 0.324 and the relative viability ([2]; first compound 0.08 µM) was 0.878. The relative viability ([2]; first compound 0.253 µM) was 0.291, the relative viability ([2]; first compound 0.8 µM) was 0.363 and the relative viability ([2]; first compound 2.53 µM) was 0.438. The relative viability ([2]; first compound 8 µM) was 0.495, the relative viability ([3]; first compound 0.08 µM) was 0.622 and the relative viability ([3]; first compound 0.253 µM) was 0.695. It also gave a relative viability ([3]; first compound 0.8 µM) of 0.695, a relative viability ([3]; first compound 2.53 µM) of 0.601 and a relative viability ([3]; first compound 8 µM) of 0.629. For the same cell line, the relative viability ([4]; first compound 0.08 µM) was 0.554, the relative viability ([4]; first compound 0.253 µM) was 0.339 and the relative viability ([4]; first compound 0.8 µM) was 0.386. It also gave a relative viability ([4]; first compound 2.53 µM) of 0.336 and a relative viability ([4]; first compound 8 µM) of 0.442.

In the case of NCI-H1755, the relative viability ([1]; first compound 0.08 µM) is reported as 0.44, the relative viability ([1]; first compound 0.253 µM) is reported as 0.518 and the relative viability ([1]; first compound 0.8 µM) is reported as 0.461. The relative viability ([1]; first compound 2.53 µM) was 0.46, the relative viability ([1]; first compound 8 µM) was 0.436 and the relative viability ([2]; first compound 0.08 µM) was 0.273. It also gave a relative viability ([2]; first compound 0.253 µM) of 0.465, a relative viability ([2]; first compound 0.8 µM) of 0.325 and a relative viability ([2]; first compound 2.53 µM) of 0.479. For the same cell line, the relative viability ([2]; first compound 8 µM) was 0.451, the relative viability ([3]; first compound 0.08 µM) was 0.429 and the relative viability ([3]; first compound 0.253 µM) was 0.557. The relative viability ([3]; first compound 0.8 µM) was 0.57, the relative viability ([3]; first compound 2.53 µM) was 0.443 and the relative viability ([3]; first compound 8 µM) was 0.377. It also gave a relative viability ([4]; first compound 0.08 µM) of 0.476, a relative viability ([4]; first compound 0.253 µM) of 0.446 and a relative viability ([4]; first compound 0.8 µM) of 0.409. The relative viability ([4]; first compound 2.53 µM) was 0.471 and the relative viability ([4]; first compound 8 µM) was 0.463.
